# Reference: US6541463B1, “Inhibitors of type 5 and type 3 17β-hydroxysteroid dehydrogenase and methods for their use” (Endorecherche, Inc., priority 1998, dated 2003)
# Legend:
# [1] = test system: Shionogi mouse mammary carcinoma cells; experiment: Androgenic activity: stimulation of proliferation of Shionogi cells; assay type: cell-based
# Summary of the method: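 Values are the percent stimulation of cell number, measured by Coulter counter, after 10–12 days of exposure to 10^−7 M or 10^−6 M compound. Androgen-sensitive Shionogi cells were seeded at 20 000 cells/well in triplicate in dextran-charcoal-treated FCS medium, refreshed every 3–4 days.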
# progesterone receptor = experiment: Progesterone receptor assay: inhibition of [3H]R5020 binding, uterine cytosol; set-up: species or system rat
# Experimental: The manner in which the percentage of inhibition is determined is described in “Other Tests; E-Progesterone Receptor Assay”. Lower numbers are desirable.
# [17α-methyl-^3H]-promegestone (R5020) (84 Ci/mmol) and the corresponding unlabeled compound were purchased from New England Nuclear (Lachine, Québec, Canada). All other chemicals were of analytical grade.
# Stock solutions of the unlabeled steroids were kept at 4° C. in ethanol. The desired steroid solutions were then prepared by appropriate dilution in buffer B (10 mM Tris-HCl, 1.5 mM EDTA, 10 mM α-monothioglycerol, pH 7.4) containing 30% ethanol.
# Female Sprague-Dawley rats weighing 200-300 g were obtained from Charles-River Inc. (St-Constant, Québec, Canada). The rats were gonadectomized under general anesthesia (Isoflurane) and killed by cervical dislocation 24 hours later. The uteri are rapidly removed, dissected free from adhering tissue and frozen on dry-ice. Tissues were kept at −80° C. until use.
# All procedures were performed at 4° C. Tissues were pulverized frozen in dry ice with a Thermovac pulverizer. The samples were then homogenized in 10 vol (w/v) of buffer A (25 mM Tris-HCl, 1.5 mM EDTA, 10 mM α-monothioglycerol, 10% glycerol, 10 mM sodium molybdate, pH 7.4) using a Polytron PT-10 homogenizer (Brinkmann Instruments, Canada) at a setting of 5 for two periods of 10 sec, with intervals of 10 sec for cooling. The homogenate was then centrifuged at 105,000×g for 90 min. The supernatant was used immediately for assay.
# Progesterone binding was measured using the dextran-coated charcoal adsorption technique. […] Each concentration was done in triplicate. Assay was ended with 300 μl of DCC (1% Norit A and 0.1% Dextran T-70 in Buffer B). After 10 min of incubation, tubes were centrifuged at 2,000×g for 10 min. and decanted in vials with 6 ml of BCS liquid scintillation (New England Nuclear, Dupont). The radioactivity was measured in a Beckman counter at a counting efficiency of 35%.
SMILES,"Androgenic Activity Shionogi, Basal E^−6 ([1]; Table 4′, E^−6) [%]","Androgenic Activity Shionogi, Basal E^−7 ([1]; Table 4′, E^−7)","% Inhibition Progesterone Receptor E^−6 (progesterone receptor; Table 4′, E^−6) [%]","% Inhibition Progesterone Receptor E^−8 (progesterone receptor; Table 4′, E^−8) [%]",also measured
"COCCOc1cc2c(cc1C(N)=O)C1CC[C@@]3(C)C(CC[C@@]34CCC(C)(C)C(=O)O4)C1CC2 (stereo partly drawn) [EM-1424, 2-Carbamoyl-3-(2″-methoxyethyloxy)-1,3,5(10)-estratrien 17(R)-spiro-2′-(5′,5′-dimethyl-6′-oxo)tetrahydropyran]",−17,0%,0,1,
CCC(=O)O[C@]1(C(C)=O)CCC2C3C=C(C)C4=CC(=O)C[C@H](C)[C@]4(C)C3CC[C@@]21C (stereo partly drawn) [CS-243],,,,,"Androgenic Activity Shionogi, Basal ([1]; E^−6): −23; Androgenic Activity Shionogi, Basal ([1]; E^−7): −13; % Inhibition Progesterone Receptor (progesterone receptor; E^−6): 27%; % Inhibition Progesterone Receptor (progesterone receptor; E^−8): 0%"
"C[C@]12CCC3c4cc([N+](=O)[O-])c(O)cc4CCC3C1CC[C@@]21CCCC(=O)O1 (stereo partly drawn) [EM-1124, 2-Nitro-1,3,5(10)-estraetriene-3-ol-17(R)-spiro-2′-(6′-oxo)tetrahydropyran]",−11,0%,20,1,
CC12C=CC(=O)C=C1C=CC1C2CCC2(C)C(=O)C3(CCCCC3)CC12 (stereo not drawn) [CS-204],,,,,"Androgenic Activity Shionogi, Basal E^−6 ([1]; E^−6): −17; Androgenic Activity Shionogi, Basal E^−7 ([1]; E^−7): 0; % Inhibition Progesterone Receptor E^−6 (progesterone receptor; E^−6): 2%; % Inhibition Progesterone Receptor E^−8 (progesterone receptor; E^−8): 0%"
"C[C@]12CCC3c4ccc(O)cc4CCC3C1CC[C@@]21CCCC(=O)O1 (stereo partly drawn) [EM-919, 1,3,5(10)-estratrien-3-ol-17(R)-spiro-2′(6′-oxo)tetrahydropyran]",−17,+73%,,,"% Inhibition Progesterone Receptor *E^−5 (progesterone receptor; Table 4′, starred values, E^−5): 68* %; % Inhibition Progesterone Receptor *E^−7 (progesterone receptor; Table 4′, starred values, E^−7): 8* %"
CC1CCC2(CCC3C4CCc5ccccc5C4CCC32C)OC1=O (stereo not drawn) [EM-1025],0,5%,4,0,
CC(C)C[C@@H]1CC2C3C=CC4=CC(=O)CC[C@]4(C)C3CC[C@]2(C)C1=O (stereo partly drawn) [EM-1273-CS],,,,,"Androgenic Activity Shionogi, Basal E^−6 ([1]; E^−6): −36; Androgenic Activity Shionogi, Basal E^−7 ([1]; E^−7): 12; % Inhibition Progesterone Receptor E^−6 (progesterone receptor; E^−6): 0%; % Inhibition Progesterone Receptor E^−8 (progesterone receptor; E^−8): 0%"
COCCOc1cc2c(cc1Cl)C1CCC3(C)C(CCC34CCC(C)(C)C(=O)O4)C1CC2 (stereo not drawn) [EM-1371-CS],92,58%,3,0,
CCC[C@@H]1CC2C3C=CC4=CC(=O)CC[C@]4(C)C3CC[C@]2(C)C1=O (stereo partly drawn) [EM-1097],,,,,"Androgenic Activity Shionogi, Basal E^−6 ([1]; E^−6): −12; Androgenic Activity Shionogi, Basal E^−7 ([1]; E^−7): 18; % Inhibition Progesterone Receptor E^−6 (progesterone receptor; E^−6): 0%; % Inhibition Progesterone Receptor E^−8 (progesterone receptor; E^−8): 2%"
"C[C@]12CCC(=O)C=C1C=C[C@@H]1[C@@H]2CC[C@]2(C)C(=O)C3(CC4CC4C3)C[C@@H]12 (stereo partly drawn) [EM-1299, 4,6-Androstadien-3,17-dione-16-spirobicyclo[3′.1′.0′]-hexane]",,,,,"Androgenic Activity Shionogi, Basal E^−6 ([1]; E^−6): 10; Androgenic Activity Shionogi, Basal E^−7 ([1]; E^−7): 5; % Inhibition Progesterone Receptor E^−6 (progesterone receptor; E^−6): 0%; % Inhibition Progesterone Receptor E^−8 (progesterone receptor; E^−8): 0%"
CC1(C)CC[C@@]2(CCC3C4CCc5cc(C(N)=O)ccc5C4CCC32C)OC1=O (stereo partly drawn) [EM-1404],0,0%,0,0,
CN(C)C(=O)c1ccc2c(c1)CCC1C2CCC2(C)C1CCC21CCC(C)(C)C(=O)O1 (stereo not drawn) [EM-1403],0,19%,0,0,
COc1ccc2c(c1)C(=O)CC1C2CC[C@@]2(C)C1CC[C@@]21CCC(C)(C)C(=O)O1 (stereo partly drawn) [EM-1394],−12,4%,4,2,
CC12CCC3c4ccc(F)cc4CCC3C1CCC21CCCC(=O)O1 (stereo not drawn) [EM-1170-CS],−27,12%,24,1,
CCCC(=O)OC1(C(C)=O)CCC2C3C=C(C)C4=CC(=O)CC(C)C4(C)C3CCC21C (stereo not drawn) [CS-245],,,,,"Androgenic Activity Shionogi, Basal ([1]; E^−6): −34; Androgenic Activity Shionogi, Basal ([1]; E^−7): −28; % Inhibition Progesterone Receptor (progesterone receptor; E^−6): 26%; % Inhibition Progesterone Receptor (progesterone receptor; E^−8): 0%"
CCCC(=O)O[C@]1(C)C(=O)CCC2C3C=C(C)C4=CC(=O)CC[C@]4(C)C3CC[C@@]21C (stereo partly drawn) [EM-1078],,,,,"Androgenic Activity Shionogi, Basal E^−6 ([1]; E^−6): 45; Androgenic Activity Shionogi, Basal E^−7 ([1]; E^−7): 5; % Inhibition Progesterone Receptor E^−6 (progesterone receptor; E^−6): 53%; % Inhibition Progesterone Receptor E^−8 (progesterone receptor; E^−8): 0%"
"CC1(C)CC[C@@]2(CCC3C4CCc5cc(C(=O)O)ccc5C4CC[C@@]32C)OC1=O (stereo partly drawn) [EM-1401, 3-Carboxy-1,3,5(10)-estratrien-17(R)-spiro-2′-(5′,5′-dimethyl-6′-oxo)tetrahydropyran]",0,2%,0,0,
CC1(C)CCC2(CCC3C4CCc5c(cc(Cl)c(OS(C)(=O)=O)c5Cl)C4CCC32C)OC1=O (stereo not drawn) [EM-1392-CS],−35,7%,2,2,
CC1(C)CC[C@@]2(CC[C@H]3[C@@H]4CCc5c(cc(Br)c(O)c5Br)[C@H]4CC[C@@]32C)OC1=O [EM-1382-CS],0,0%,0,2,
"COC(=O)CCCC(=O)O[C@]1(C(C)=O)CC[C@H]2[C@@H]3C=C(C)C4=CC(=O)CC[C@]4(C)[C@H]3CC[C@@]21C [EM-1007, 6-Methyl-4,6-pregnadien-17α-ol-3,20-dione 4′-Carbomethoxybutyrate]",,,,,"Androgenic Activity Shionogi, Basal ([1]; E^−6): −31; Androgenic Activity Shionogi, Basal ([1]; E^−7): 0; % Inhibition Progesterone Receptor (progesterone receptor; E^−6): 0%; % Inhibition Progesterone Receptor (progesterone receptor; E^−8): 0%"
CCS(=O)(=O)Oc1ccc2c(c1)CCC1C2CCC2(C)C1CCC21CCC(C)(C)C(=O)O1 (stereo not drawn) [EM-1364-CS],−16,0%,0,0,
CN(C)CCOc1ccc2c(c1)CCC1C2CCC2(C)C1CCC21CCC(C)(C)C(=O)O1 (stereo not drawn) [EM-1389-CS],−41,0%,0,3,
CC(=O)O[C@]1(C)C(=O)CCC2C3C=C(C)C4=CC(=O)C=C[C@]4(C)C3CC[C@@]21C (stereo partly drawn) [CS-237],,,,,"Androgenic Activity Shionogi, Basal E^−6 ([1]; E^−6): −29; Androgenic Activity Shionogi, Basal E^−7 ([1]; E^−7): −22; % Inhibition Progesterone Receptor E^−6 (progesterone receptor; E^−6): 0%; % Inhibition Progesterone Receptor E^−8 (progesterone receptor; E^−8): 0%"
"CC1(C)CC[C@@]2(CCC3C4CCc5cc6oncc6cc5C4CC[C@@]32C)OC1=O (stereo partly drawn) [EM-1407-CS, 1,3,5(10)-estratrien-(2,3-oximino)-17(R)-spiro-2′-(5′,5′-dimethyl-6′-oxo)tetrahydropyran]",−23,0%,3,0,
